Source: PMC10296061, “Inhibition of the Mitochondrial Carnitine/Acylcarnitine Carrier by Itaconate through Irreversible Binding to Cysteine 136: Possible Pathophysiological Implications” (Biomolecules, 2023)
Where a chain is given by its changes, count along the chain named.

How the values were obtained:
[1] = biological target: T1, CAC C23V/C58V/C89S/C136V/C155V/C283S (C-less) mutant (Rattus norvegicus, UniProt P97521, C136V/C155V/C23V/C283S/C58V/C89S); experiment: Transport assay in proteoliposomes, C-less CAC mutant; type: biochemical
T1 construct: made in house; host or cells: E. coli C0214
T1 sequence (P97521 1-301 C23V/C58V/C89S/C136V/C155V/C283S): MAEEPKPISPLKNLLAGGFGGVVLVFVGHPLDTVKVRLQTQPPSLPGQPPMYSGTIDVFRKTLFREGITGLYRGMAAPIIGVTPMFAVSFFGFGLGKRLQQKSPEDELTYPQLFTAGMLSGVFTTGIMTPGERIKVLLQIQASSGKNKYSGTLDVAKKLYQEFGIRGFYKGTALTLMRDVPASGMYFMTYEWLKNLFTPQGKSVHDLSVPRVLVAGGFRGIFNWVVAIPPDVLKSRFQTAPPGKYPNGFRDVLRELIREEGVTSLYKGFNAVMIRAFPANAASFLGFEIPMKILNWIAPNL
Protocol: As previously described, the pMW7-WTratCAC recombinant plasmid was used for over-expressing the rat CAC [22]. The overlap extension method was used to introduce the mutations; in the main time, NdeI and HindIII restriction sites were also added using appropriate primers. The PCR products were purified by the QIAEX II Gel Extraction Kit (QIAGEN) and digested with NdeI and HindIII and then ligated into the pMW7. All mutations were verified by DNA sequencing. The resulting plasmid constructs were transformed into E. coli C0214. Overexpression, inclusion body fraction preparation, and purification of the CAC proteins were performed as previously described.
(§1) As previously described, recombinant CAC (WT and mutants) and ORC1 proteins were used for proteoliposome formation. For experiments with native CAC, ORC1, or ANT proteins, rat liver mitochondria, or HeLa cell mitochondria, the latter for the CAC alone, were first purified using the standard procedure of cell disruption and differential centrifugation. Then proteins were extracted using 3% Triton X-100 and reconstituted as described for the recombinant proteins. The concentration of intraliposomal carnitine and ornithine was 15 mM and 30 mM, respectively, in all samples.
(§2) To test the transport activity of the CAC, 550 μL of proteoliposomes was passed through a Sephadex G-75 column to remove the external substrate. Six hundred μL of the turbid eluate was collected, divided into samples of 100 μL each, and used for transport measurement by the inhibitor-stop method. Transport was started by adding 0.1 mM [^3H]carnitine ([^3H]ornitine or [^3H]ATP) to proteoliposome samples and stopped with 1.5 mM NEM (N-ethylmaleimide) at the indicated time interval. In the control samples, NEM was added with the labeled substrate at time zero. Transport rates were measured in 10 min, i.e., within the initial linear range of the time course, at 25 °C. After terminating the transport reaction, the external substrate was removed by chromatography on the Sephadex G-75 column, and the intraliposomal radioactivity was measured. The experimental values were corrected by subtracting the controls.
Figure 3 Identification of residue responsible for itaconate inhibition. (a) Dose–response analysis of the Cys mutants of CAC for the inhibition by itaconate was performed. Transport activity of the WT (○), C136A (●), C155A (Δ), C23V/C58V/C89S/C155V/C283S (▲), and C23V/C58V/C89S/C136V/C155V/C283S (□) was measured by adding 0.1 mM [^3H]carnitine after treatment by itaconate at the indicated concentrations. Transport activity (µmol/10 min/mg) is: WT 1.80 ± 0.31; C136A 0.91 ± 0.10; C155A 1.00 ± 0.17; C23V/C58V/C89S/C155V/C283S 1.02 ± 0.159; C23V/C58V/C89S/C136V/C155V/C283S 0.71 ± 0.22. (b) Dose–response analysis of proteoliposomes reconstituted native (○) or recombinant ORC (●) incubated with itaconate at the indicated concentrations. Transport activity was measured by adding 0.1 [^3H]ornithine, respectively, as described in Materials and Methods. The data are expressed as a percent of the controls (no addition of itaconate) and are means ± SD from three independent experiments.
Figure 4 Lysine contribution to CAC inhibition by itaconate. Protection of PLP (pyridoxal phosphate) from inhibition by itaconate on C-less CAC was carried out. C-less mutant (i.e., C23V/C58V/C89S/C136V/C155V/C283S) was reconstituted into proteoliposomes and treated or not treated with 30 mM PLP for 10 min (“Contr” or “PLP” column, respectively). […]

[2] = biological target: T2, native mitochondrial carnitine/acylcarnitine carrier (CAC) (Rattus norvegicus, UniProt P97521); experiment: [3H]carnitine/carnitine antiport in proteoliposomes reconstituted with native CAC from rat liver mitochondria; type: biochemical; details: 10 min incubation, 0.1 mM [3H]carnitine, pH 7.0, read-out: IC50 for itaconate inhibition of [3H]carnitine/carnitine antiport
T2 construct: from tissue; host or cells: rat liver mitochondria
T2 sequence (P97521 1-301): T1 sequence (P97521 1-301 C23V/C58V/C89S/C136V/C155V/C283S) with V23C, V58C, S89C, V136C, V155C, S283C
Text: as §1
as §2, with “In the control samples, NEM was added with the labeled substrate at time zero.” left out, “The experimental values were corrected by subtracting the controls.” left out

C=C(CC(=O)O)C(=O)O [itaconate]
effect on PLP pretreated (protected) C-less CAC ([1]; 15 mM itaconate added to 30 mM PLP pretreated protein, reactants removed by G-75): inefficacy
effect on C-less CAC transport ([1]; 15 mM itaconate, no PLP preincubation): inhibited
IC50 ([1]; C-less mutant, read-out: IC50 for itaconate inhibition): 15 ± 2.4 mM
IC50 [2]: 11 ± 4.6 mM
